US20170367338A1, “COMPOSITIONS AND METHODS FOR IMPROVING AGRONOMIC CHARACTERISTICS OF PLANTS” (MONSANTO TECHNOLOGY LLC, priority 2014, published 2017)
Converted amounts (≈) assume the structure as drawn. Like-named read-outs stand apart in the source and are kept apart here. Marks after values point to notes of the source that are not given here.

Tests used:
Meloidogyne incognita [1] = test: M. incognita miniaturized greenhouse assay on cucumber seedlings; format: in vivo
Protocol: The test compound is dissolved in an acetone solution and added to water. A sprouted cucumber seedling is placed into a vial with dry sand and the water-chemical solution is added immediately. Twenty four hours later Meloidogyne incognita eggs are added to the vials and 10 to 12 days later the roots are evaluated for nematode galling.
Cucumber seeds are sprouted for 3 days in moist paper towels. Acceptable sprouts should be 3 to 4 cm long with several lateral roots just emerging. Stock solutions of chemistry are prepared in a mixture of acetone and Triton X100 (412 mg in 500 mL) to a final concentration of 5 mg/mL. The chemical stock solution is then added to 10 mL deionized water plus 0.015% Triton X100 and mixed thoroughly. This is enough to test each condition in triplicate. Ten mL dry sand is added to each vial. At this time the solubility of the chemistry is visually determined and recorded as either ppt (large precipitates) or cloudy (fine precipitates). Seedlings are planted by tilting the vial and laying the seedling in the correct orientation so that the cotyledons are just above the sand and then tilting back to cover the radicles with sand. 3.3 ml water/chemical mix is added to each vial and the vials placed in racks under fluorescent light banks. The vials are inoculated two days after planting by adding 500 vermiform M. incognita eggs to each vial in 50 uL of deionized or spring water. The vials are then kept under the fluorescent lamps at ambient room temperature and watered as needed with 1mL deionized water, usually twice during duration of test. Harvest of the cucumber plants is done 10 to 12 days after inoculation by washing sand off the roots. A root gall rating and visual phytotoxicity rating is assigned using the following scales: Gall rating scale (Gall: % root mass galled): 0=0-5%; 1=6-20%; 2=21-50%; and 3=51-100%. The average of the triplicate gall rating is then calculated: green=0.00-0.33 (no galls); yellow=0.67-1.33 (mild galling); orange=1.67-2.33 (moderate galling); red=2.67-3.00 (severe galling). Visual phytotoxicity scale is also assigned (Vis. tox; visual reduction in root mass compared to the control): rs1=mild stunting; rs2=moderate stunting; rs3=severe stunting.

Meloidogyne incognita [2] = test: Summer field evaluation of pre-plant incorporated compounds on squash; format: in vivo
Protocol: Test plots of 33 cm diameter holes were bored 41 cm deep into clay soil and filled with a mixture of 80% sand and 20% silt loam soil. Technical compound for each treatment was dissolved in 50 ml acetone containing 250 ul of Triton X-100 surfactant. This solution was added to 450 ml water and poured onto 95 liters of sand/soil mixture in a rotating drum mixer. While continuing to rotate the mixing drum 66 grams of chopped, galled, tomato roots was added and thoroughly distributed. The treated soil was sufficient to fill the top 15 cm of each of the 6 replicate plots, thus simulating a PPI treatment. The plots were then watered lightly and a mixture of M. incognita eggs and larvae were injected 5 cm deep at 5 points within the plot (100k eggs/larvae in 10m1 per plot). Three-week old squash (cv. Liberator III) with 1 fully expanded true leaf was planted 4 days after soil treatment, one per plot.

[3] = test system: Heterodera glycines (SCN); test: Seed treatment test of soybean cyst nematode on soybean; format: in vivo; conditions: Heterodera glycines, 672 h, read-out: percent cyst reduction relative to control blank treatment
Protocol: For a given concentration the chemical is dissolved in 500 ul of acetone and one gram of cucumber seed (RKN test) or soybean seed (SCN test) is added (e.g., 20 mg active ingredient in 500 ul acetone plus 1 gram of seed). The seed solutions are agitated until all seeds were thoroughly covered with the chemical solution. The acetone is then allowed to evaporate by air drying the seeds. The seeds are planted in 2-inch pots containing sandy soil and then the pots are inoculated with 1000 Meloidogyne incognita (RKN) or 1000 Heterodera glycines (SCN) eggs per pot three days after planting. Plants are rated for galling 14 days after egg inoculation for RKN or 28 days after egg inoculation for SCN.

Meloidogyne incognita [4] = test: Fall nematicidal field test on squash; conditions: for RG28 % root galls at 28 days after treatment / RG43 % root galls at 43 days after treatment / RW28 root weight at 28 days after treatment / RW43 root weight at 43 days after treatment / TW28 top weight at 28 days after treatment: squash
Excerpt: The soil was a native prairie/pasture covering silty clay loam soil. […] Total volume of each hole was about 1.2 cubic feet. […] Holes were filled and then re-filled 5 days later after settling. […] Organic matter was 0.2% and pH was 6.8.
Treatments were arranged in a block design with the blocks laid out perpendicular to the primary slope and parallel to secondary slope. There are 7 inoculated controls and 5 non-inoculated controls and the distributions of disease severity appeared independent of location.
The resultant mix is the same as used in the standard greenhouse assays (10% acetone, 0.05% X100). The oxamyl treatments were prepared from Vydate 2L formulated the same way. The 500 ml was placed in a watering can and the entire volume was evenly sprinkled over the surface of the plot. No runoff occurred and pooling, if any, was short lived. The final drench volume was 0.58 ml/cm^2, compared to 0.2 ml/cm^2 used in our greenhouse, however the microplots are much deeper so the drench volume applied per soil volume treated is roughly the same.
Meloidogyne incognita eggs were harvested over a two week period and stored at approximately 5° C. until needed. A stock of 5.6 million vermiform eggs was adjusted to 9000/m1 in 620 ml. One day after treatment, two holes were made in each plot about 7 cm apart and equidistant from the squash plants. Five ml of egg suspension was pipetted into each hole, which was then sealed and the plot lightly watered. A total of 90,000 vermiform eggs were added to each plot.
The first root evaluation was at 28 DAT. The tops were cut off and weighed immediately in the field, and the roots were carefully dug out so as not to disturb the remaining plant.

[5] = test system: soybean cyst nematode (SCN); test: SCN greenhouse sand assay on soybean plants; format: in vivo; conditions: Glycine max, 672 h, read-out: percent control (cyst number reduction) relative to the control blank treatment; for pest or weed control at 2000 g/ha: 2 kg/ha
Excerpt: Soybeans seeds are planted in 100% sand in two inch square plastic pots. Chemical treatment is done when the soybeans show the first trifoliate beginning to emerge about 10 to 12 days after planting. At least four hours after chemical application the nematode soybean cyst nematode (SCN) eggs are applied and 28 days after the egg inoculation the test is harvested.
One milligram of chemistry per four pots is equal to one kilogram per hectare of chemical. A standard test uses four replications. For rates above 2 kg/ha, the desired amount of chemical is weighed into a 30 ml vial (example: 8 kg/ha rate =8 mg chemical in 30 ml vial). The chemical is dissolved in 2 ml of appropriate solvent, generally acetone. For rates below 2 kg/ha, 2 milligrams of chemistry is weighed into the vial and dissolved in 2 ml of the solvent. The appropriate amount of chemical concentrate is then pipetted into a separate 30 ml vial and solvent is added to bring the volume to 2 ml (example 0.5 kg/ha=0.5 ml of concentrate+1.5 ml solvent). Each dissolved concentrate is then brought to a total of 20 milliliters using 0.05% Triton X 100 surfactant solution.
Pots to be treated are moist but not saturated. To each of four pots, five milliliters of the appropriate chemical solution is pipetted to the media surface making sure to avoid contact with the base of the plant. Immediately following chemical application, using a mist nozzle, the pot surface is wetted sufficiently to saturate the pot watering in the chemistry. The chemical application is done in the morning.
Nematode eggs, either SCN or RKN, are added to distilled water to create a concentration of 1000 vermiform eggs […]. At least four hours after chemical treatment the eggs are applied to the treated pots plus non-treated check plants. A small hole about 1 cm deep is punched into the pot surface. One milliliter of the nematode egg slurry is pipetted into the hole. Immediately afterwards the hole is gently covered. Watering of the test plants is then restricted to only water as needed to prevent wilt for a period of 24 hours. After the 24 hour restricted watering, normal sub-irrigation watering is done for the duration of the test.

[6] = format: in vivo; conditions: 500 mg/kg oral, three female mice, observed up to 14 days
Protocol: Acute oral toxicity testing was performed in mice in accordance with test method P203.UDP, as administered by Eurofins/Product Safety Laboratories (Dayton, New Jersey). CD-1/Swiss derived albino mice were obtained and group housed in suspended solid bottom caging. The mice were fed rodent chow and filtered tap water was supplied ad libitum. Following acclimation to the laboratory setting, a group of animals was fasted overnight by removing food from the cages. After the fasting period, three female mice were selected based on vitality and initial body weights. The individual compound doses were calculated from these body weights.
The test substance was prepared as a 1% (50 mg/kg) or 5% (500 mg/kg) weight to weight (w/w) mixture in a 0.5% w/w solution of carboxymethylcellulose (CMC) in distilled water. A tissue homogenizer was used to create a homogeneous mixture. A dose of 50 or 500 mg/kg was administered to three healthy mice per dose level by oral intubation using a ball-tipped gavage needle attached to a syringe. After administration, the animals were returned to their cages, and feed was replaced immediately after dosing.
Body weights were recorded prior to initiation and on Days 7 and 14 or a soon as possible after death.

C. elegans = test: Three day C. elegans well assay; format: in vivo; conditions: Caenorhabditis elegans, L1 larvae
Protocol: Various compounds were tested for nematicidal activity against C. elegans using contact assays in wells. The assays were performed as described below. The test compounds were solubilized in DMSO at 10 mg/ml to create 100× stock solutions. A dilution series was created by diluting the stock solution with DMSO. For each well assay 4 ul of the appropriate dilution is added to a well of a test plate. A 400 ul aliquot of bacterial stock (in M9 buffer with ampicillin and nystatin) are added to each well of the test plate. Worms are added and the test plate placed on a rotary shaker and held at 20° C. Worms are examined and scored at 4 hrs, 24 hrs, 48 hrs and 72 hours. L1 worms and L4 worms were used in the assay. L1 worms are prepared by plating eggs on a plate without a bacterial feeding layer. The eggs hatch and arrest at the L1 stage. This L1 stage population is then used to create a stock for the experiments. To create an L4 stage stock a small number of worms are taken from an overgrown and starved plate of worms and seeded on a plate with a bacterial feeder layer. A 25 ul aliquot of worms is added to each well in the assay.

## CNC(=O)O/N=C(\SC)C(=O)N(C)C [Oxamyl]
Meloidogyne incognita [1]; 1 ppm (oxamyl), Table 1A
  gall ratings: 0.67
Meloidogyne incognita [1]; Table 1B test a
  1 ppm gall ratings: 0.67
Meloidogyne incognita [1]; Table 1B test b
  1 ppm gall ratings: 1 (1=6-20%)
Meloidogyne incognita [1]; Table 1B test c
  1 ppm gall ratings: 1.33
Meloidogyne incognita [1]; Table 1B test d
  1 ppm gall ratings: 1.33
Meloidogyne incognita [1]; Table 1B test e
  1 ppm gall ratings: 1 (1=6-20%)
Meloidogyne incognita [1]; Table 1C test a
  1 ppm gall rating: 1.33
Meloidogyne incognita [1]; Table 1C test b
  1 ppm gall rating: 1 (1=6-20%)
Meloidogyne incognita [1]; Table 1C test c
  1 ppm gall rating: 0.67^c
Meloidogyne incognita [1]; Table 1D test a
  1 ppm gall rating: 1.33
Meloidogyne incognita [1]; Table 1D test b
  1 ppm gall rating: 1 (1=6-20%)
Meloidogyne incognita [2]; 4 kg/ha PPI, squash
  0-3 vigor 16DAP: 2.7
  0-3 vigor 21DAP: 2.5
  feeder root (3 = ave) 31DAP: 3.0
  gall % 31DAP: 85%
  root wgt (g) 31DAP: 37.0 g
  top wgt (lbs) 31DAP: 1.16 lbs
  total fruit (lbs): 1.09 lbs
[3]
  pest or weed control at 0.375 mg/g: -4%
  pest or weed control at 1.5 mg/g: 71%
Meloidogyne incognita [4]; 2 kg ai/ha
  RG28 % root galls at 28 days after treatment: 45.0%
  RG43 % root galls at 43 days after treatment: 42.3%
  RW28 root weight at 28 days after treatment: 5.6
  RW43 root weight at 43 days after treatment: 14.3
  TW28 top weight at 28 days after treatment: 136.8
Meloidogyne incognita [4]; 5 kg ai/ha
  RG28 % root galls at 28 days after treatment: 10.5%
  RG43 % root galls at 43 days after treatment: 17.3%
  RW28 root weight at 28 days after treatment: 6.6
  RW43 root weight at 43 days after treatment: 12.7
  TW28 top weight at 28 days after treatment: 232.1

## c1ccc(-c2cnc(-c3cccs3)o2)cc1 [compound 4417]
[5]; test b
  pest or weed control at 2000 g/ha: 94%
[6]
  acute oral toxicity: mortality and signs: One animal died within four days
Meloidogyne incognita [4]; 2 kg ai/ha
  RW28 root weight at 28 days after treatment: 5.3
  RW43 root weight at 43 days after treatment: 16.4
  TW28 top weight at 28 days after treatment: 97.5
Meloidogyne incognita [4]; 2 kg/ha, five days after treatment (5 DAT)
  Leaf diameter of the first true leaves: slight reduction
Meloidogyne incognita [4]; 2 kg/ha, two days after treatment, squash seedlings
  phytotoxicity: slight phytotoxicity

## Clc1ccc(-c2nnc(-c3cccs3)o2)cc1 [compound 4559]
[5]; test a
  pest or weed control at 2000 g/ha: 98%
Meloidogyne incognita [4]; 2 kg ai/ha
  RW28 root weight at 28 days after treatment: 6.4
  RW43 root weight at 43 days after treatment: 13.2
  TW28 top weight at 28 days after treatment: 150.8
Meloidogyne incognita [4]; 43 day time point
  control of root galling compared with oxamyl at an equivalent rate: significantly better than oxamyl

## Fc1ccc(-c2cnc(-c3cccs3)o2)cc1 [compound 4775]
[5]; test b
  pest or weed control at 2000 g/ha: 95%
[6]
  acute oral toxicity: mortality and signs: all animals survived

## FC(F)(F)c1cccc(-c2noc(-c3ccco3)n2)c1 [compound 5181]
[5]; test a
  pest or weed control at 2000 g/ha: 100%

## c1cncc(-c2noc(-c3ccco3)n2)c1 [compound 5292]
[5]; test a
  pest or weed control at 2000 g/ha: 92%

## Cc1occc1-c1nc(-c2ccc(Cl)cc2)no1 [compound 5867]
Meloidogyne incognita [1]; Table 1C test a
  1 ppm gall rating: 1 ^a (1=6-20%)

## COc1ccc(-c2noc(-c3ccoc3C)n2)cc1 [compound 5869]
Meloidogyne incognita [1]; Table 1C test a
  1 ppm gall rating: 1 ^a (1=6-20%)

## Cc1cc(Br)ccc1-c1nsc(-c2ccco2)n1 [compound 5939]
[5]; 0.1 kg/ha, test d
  pest or weed control at 100 g/ha: 64%
[5]; 0.25 kg/ha, test d
  pest or weed control at 250 g/ha: 88%
C. elegans; 24 h, one day of exposure, read-out: EC50 L1 1D
  EC50: 0.4 µg/mL (≈ 1.25 µM)
C. elegans; 48 h, two days of exposure, read-out: EC50 L1 2D
  EC50: 0.4 µg/mL (≈ 1.25 µM)
C. elegans; 72 h, three days of exposure, read-out: EC50 L1 3D
  EC50: 0.4 µg/mL (≈ 1.25 µM)

## Clc1ccc(-c2nsc(-c3ccco3)n2)c(Cl)c1 [compound 5960]
[6]
  acute oral toxicity: mortality and signs: all animals survived
Meloidogyne incognita [2]; 4 kg/ha
  control of M. incognita by PPI application: significant control
